Paper PMC3166071, “Ancient Antimicrobial Peptides Kill Antibiotic-Resistant Pathogens: Australian Mammals Provide New Options” (PLoS ONE, 2011)
≈ marks a conversion by molar mass, not a printed value. Where two headings read alike, the source gives them in different places. Where no end group is shown, it is not given here.

Tests used:
[1] = tested on: E. coli DH5α; assay: microbe, parasite or virus in culture; assay type: cell-based, Escherichia coli; settings: for Relative potency of WAM1: against E. coli, WAM1 relative to the antibiotic of the line
Protocol: (§1) Peptides were synthesized and HPLC purified (AusPep Pty Ltd). The two-stage radial diffusion assay used in this study has been described elsewhere. Briefly, ∼4×10^6 of mid-logarithmic-phase organisms were mixed into 10 ml of warm 0.8% agarose containing 0.03% (w/v) Trypticase soy broth (TSB) powder buffered with 10 mM sodium phosphate, pH 7.4. The synthetic peptides were serially diluted in 0.01% acetic acid and 5 µl peptide samples were loaded in 2.5 mm diameter wells. The plates were covered, and incubated at 37°C. After 3 hours, a 10 ml overlay gel composed of 6% TSB, 0.8% agarose in 10 mM sodium phosphate buffer (pH 7.4) was poured onto the plates. The plates were incubated overnight to allow the surviving organisms to form microcolonies. The clear zone was measured using a magnified transilluminator and expressed in units (1 mm = 10 U) after subtracting the well diameter. The MIC is defined by the χ intercept of a regression line through zone diameters obtained from a series of serially diluted peptide samples. For multidrug-resistant bacteria, MICs were measured as described by micro-broth dilution in Mueller-Hinton broth (Oxoid, Hampshire, England) according to according to Clinical and Laboratory Standards Institute (CLSI) standards. The MIC measurements were performed in duplicate and the data incorporated into a final MIC using standard methods. All the bacterial strains were tested on at least two different occasions. Mid-logarithmic phase cultures of P. aeruginosa 19056 muc were diluted in Mueller–Hinton broth to yield approximately 10^6 cfu/ml. Peptides were added at the indicated concentrations and the suspensions were then incubated for different times in a shaking water bath at 35°C. At the end of each incubation time, the samples were serially diluted in buffered saline and plated onto nutrient agar with a spiral plater (Don Whitley Scientific, Australia). Colonies were counted after 17–22 h incubation at 35°C using an automatic colony counter (Don Whitley Scientific, Australia).

[2] = tested on: P. aeruginosa (ATCC 27853); assay type: cell-based, Pseudomonas aeruginosa; settings: ATCC 27853, 3 h, pH 7.4
Protocol: as §1

[3] = tested on: B. subtilis; assay type: cell-based, Bacillus subtilis
Protocol: as §1

[4] = tested on: S. aureus (ATCC 25923); assay type: cell-based, Staphylococcus aureus; settings: ATCC 25923, 3 h, pH 7.4
Protocol: as §1

[5] = tested on: Sal. enterica (ATCC 14028); assay type: cell-based
Protocol: as §1

[6] = tested on: Strep. pyogenes (ATCC 19615); assay type: cell-based
Protocol: as §1

[7] = tested on: Strep. uberis; assay type: cell-based, Streptococcus uberis
Protocol: as §1

[8] = tested on: C. albicans (ATCC 753); assay type: cell-based, Candida albicans
Protocol: as §1

[9] = tested on: P. aeruginosa; assay type: cell-based, Pseudomonas aeruginosa; settings: 3 h
Protocol: as §1

[10] = tested on: A. baumannii; assay type: cell-based, Acinetobacter baumannii; settings: 3 h
Protocol: as §1

[11] = tested on: K. pneumoniae; assay type: cell-based, Klebsiella pneumoniae; settings: 3 h
Protocol: as §1

[12] = tested on: K. pneumoniae; assay type: cell-based, Klebsiella pneumoniae; settings: 3 h; remark: listed apart in the source
Protocol: Figure 3 Time course of K. pneumoniae killing by WAM1 in broth. Time marked in minutes. […] Antimicrobial assays were performed as described previously.
Peptides were synthesized and HPLC purified (AusPep Pty Ltd). The two-stage radial diffusion assay used in this study has been described elsewhere. Briefly, ∼4×10^6 of mid-logarithmic-phase organisms were mixed into 10 ml of warm 0.8% agarose containing 0.03% (w/v) Trypticase soy broth (TSB) powder buffered with 10 mM sodium phosphate, pH 7.4. The synthetic peptides were serially diluted in 0.01% acetic acid and 5 µl peptide samples were loaded in 2.5 mm diameter wells. The plates were covered, and incubated at 37°C. After 3 hours, a 10 ml overlay gel composed of 6% TSB, 0.8% agarose in 10 mM sodium phosphate buffer (pH 7.4) was poured onto the plates. The plates were incubated overnight to allow the surviving organisms to form microcolonies. The clear zone was measured using a magnified transilluminator and expressed in units (1 mm = 10 U) after subtracting the well diameter. […] For multidrug-resistant bacteria, MICs were measured as described by micro-broth dilution in Mueller-Hinton broth (Oxoid, Hampshire, England) according to according to Clinical and Laboratory Standards Institute (CLSI) standards. […] Colonies were counted after 17–22 h incubation at 35°C using an automatic colony counter (Don Whitley Scientific, Australia).

[13] = tested on: human red blood cells; assay type: cell-based
Protocol: Figure 4 Toxicity of WAM1 on human red blood cells. Haemolytic activity was determined by treating human red blood cells with different concentrations of WAM1 and haemoglobin release measured by absorbance at 450 nm. Samples were incubated at 37°C for 1 hour. PBS and 1% Tween-20 were used as negative and positive controls, representing 0% and 100% hemolytic activity respectively.

[14] = DH5α, 3 h, pH 7.4, read-out: MIC
[15] = Escherichia coli, Table 2, against E. coli, comparison of WAM1 with antibiotics, read-out: MIC

Molecule	MIC [1, 14] [µM]	MIC [2] [µM]	MIC ([3]; 3 h, pH 7.4) [µM]	MIC [4] [µM]	MIC ([5]; ATCC 14028, 3 h, pH 7.4) [µM]	MIC ([6]; ATCC 19615, 3 h, pH 7.4) [µM]	MIC ([7]; 3 h, pH 7.4) [µM]	MIC ([8]; ATCC 753, 3 h, pH 7.4) [µM]	Relative potency of WAM1 [1] [x]	other results
RRGFWKRLRRRLRRFGDRIRNRFRNFREKLPDPFPG [Ancestral WAM]	0.41	2.06	1.56	1.42	0.96	0.68	0.07	6.45		
CN(C)[C@@H]1C(O)=C(C(N)=O)C(=O)[C@@]2(O)C(O)=C3C(=O)c4c(O)cccc4[C@@](C)(O)[C@H]3C[C@@H]12 [Tetracycline]									10	MIC [1, 15]: 4.5 µM (≈ 2 µg/mL)
KRGFGKKLRKRLKKFRNSIKKRLKNFNVVIPIPLPG [WAM1]	0.47	0.77	1.50	1.01	1.14	0.66	1.22	1.30		MIC ([1]; DH5α, 3 h, read-out: MIC): 0.47 µM; MIC 0 mM NaCl [9]: 0.9 µM; MIC 150 mM NaCl [9]: 0.9 µM; MIC 200 mM NaCl [9]: 0.9 µM; MIC 0 mM NaCl [10]: 1.9 µM; MIC 150 mM NaCl [10]: 1.9 µM; MIC 200 mM NaCl [10]: 3.8 µM; MIC 0 mM NaCl [11]: 0.5 µM; MIC 150 mM NaCl [11]: 0.9 µM; MIC 200 mM NaCl [11]: 0.9 µM; K. pneumoniae killed [12]: 99.9%; Haemolytic activity against human red blood cells [13]: not hemolytic
CC[C@H](C)[C@H](NC(=O)[C@H](CCCCN)NC(=O)[C@H](CCC(=O)O)NC(=O)[C@H](CCCCN)NC(=O)[C@H](CO)NC(=O)[C@H](CCCCN)NC(=O)[C@H](CCCNC(=N)N)NC(=O)[C@H](Cc1ccccc1)NC(=O)[C@H](Cc1ccccc1)NC(=O)[C@H](CC(=O)O)NC(=O)CNC(=O)[C@H](CC(C)C)NC(=O)[C@@H](N)CC(C)C)C(=O)NCC(=O)N[C@@H](CCCCN)C(=O)N[C@@H](CCC(=O)O)C(=O)N[C@@H](Cc1ccccc1)C(=O)N[C@@H](CCCCN)C(=O)N[C@@H](CCCNC(=N)N)C(=O)N[C@H](C(=O)N[C@H](C(=O)N[C@@H](CCC(N)=O)C(=O)N[C@@H](CCCNC(=N)N)C(=O)N[C@H](C(=O)N[C@@H](CCCCN)C(=O)N[C@@H](CC(=O)O)C(=O)N[C@@H](Cc1ccccc1)C(=O)N[C@@H](CC(C)C)C(=O)N[C@@H](CCCNC(=N)N)C(=O)N[C@@H](CC(N)=O)C(=O)N[C@@H](CC(C)C)C(=O)N[C@H](C(=O)N1CCC[C@H]1C(=O)N[C@@H](CCCNC(=N)N)C(=O)N[C@H](C(=O)N[C@@H](CCC(=O)O)C(=O)N[C@@H](CO)C(=O)O)[C@@H](C)O)C(C)C)[C@@H](C)CC)C(C)C)[C@@H](C)CC [LL37, reference compound]										MIC ([1]; E. coli DH5α, two-stage radial diffusion, 0.8% agarose, 0.03% TSB, 10 mM sodium phosphate pH 7.4, 37°C, MIC = x intercept of regression line of zone diameters, read-out: MIC): 5.57 µM (≈ 25 µg/mL); MIC ([3]; B. subtilis, two-stage radial diffusion, 10 mM sodium phosphate pH 7.4, 37°C): 8.62 µM (≈ 38.7 µg/mL); MIC ([5]; Sal. enterica (ATCC 14028), two-stage radial diffusion, 10 mM sodium phosphate pH 7.4, 37°C): 4.30 µM (≈ 19.3 µg/mL); MIC ([6]; Strep. pyogenes (ATCC 19615), two-stage radial diffusion, 10 mM sodium phosphate pH 7.4, 37°C): >55 µM; MIC ([7]; Strep. uberis, two-stage radial diffusion, 10 mM sodium phosphate pH 7.4, 37°C): 2.24 µM (≈ 10.1 µg/mL); MIC ([8]; C. albicans (ATCC 753), two-stage radial diffusion, 10 mM sodium phosphate pH 7.4, 37°C): >56 µM
RTKRRIKLIKNGVKKVKDILKNNNIIILPGSNEK [PAM1]	0.75	1.89	1.96	0.56	0.47	0.73	0.25	>20		
O=C(N[C@H](CO)[C@H](O)c1ccc([N+](=O)[O-])cc1)C(Cl)Cl [Chloramphenicol]									26	MIC ([1]; Escherichia coli): 12.4 µM (≈ 4.01 µg/mL)
KRGLWESLKRKATKLGDDIRNTLRNFKIKFPVPRQG [WAM2]	1.46	1.29	2.14	1.39	1.58	0.39	0.63	1.47		
CC1(C)S[C@@H]2[C@H](NC(=O)[C@H](N)c3ccccc3)C(=O)N2[C@H]1C(=O)O [Ampicillin]									12	MIC [1, 15]: 5.7 µM (≈ 1.99 µg/mL)
RPWAGNGSVHRYTVLSPRLKTQ [PAM2]	0.87	0.73	3.37	2.42	1.11	0.83	0.51	2.50		
